Test results from the supplement of paper PMC10627819.

Key:
B. subtilis 168 [1] = assay: fitness (endpoint OD595 vs no drug) (fraction); higher = more growth
Outline: (§1)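 Bacterial fitness was scored as optical density at the stationary-phase transition relative to the robust mean of no-drug control wells. Scores are capped at 1. The growth data were OD595 readings every 30 min for 14 h at 37 °C, background-subtracted against the first reading, from 384-well plates inoculated at OD595 0.01 in TSB, LB Lennox or CY.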

S. aureus Newman [2] = assay: as above
Outline: as §1

S. pneumoniae D39V [3] = assay: as above
Outline: as §1

B. subtilis 168 [4] = assay: Bliss interaction score (quartile over a dose matrix) (fitness difference); higher = more antagonism (negative = synergy)
Outline: (§2)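 The Bliss score is observed minus expected fitness, where expected fitness is the product of the single-drug fitness values inferred from the combination data. Fitness is the OD595 at the onset of stationary phase over the plate's robust no-drug mean, capped at 1. Scores are summarised by quartiles over technical, biological and donor/recipient replicates.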

S. aureus DSM 20231 = assay: as above
Outline: as §2

S. aureus Newman [5] = assay: as above
Outline: as §2

S. pneumoniae D39V [6] = assay: as above
Outline: as §2
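Wherever Bliss interaction score (quartile over a dose matrix) is given: first quartile when negative (synergy) and third quartile when positive (antagonism).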
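Wherever fitness (endpoint OD595 vs no drug) is given: OD595 on entry to stationary phase over no-drug wells; at most 1.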

C[C@@H]1O[C@@H]1P(=O)(O)O [Fosfomycin] + CC(C1CCC(C(O1)OC2C(CC(C(C2O)OC3C(C(C(CO3)(C)O)NC)O)N)N)N)NC [Gentamicin]
main component drawn
Settings | fitness
B. subtilis 168 [1], first compound 1.562 µg/mL, partner 0.0625 µg/mL | 0.757
B. subtilis 168 [1], first compound 3.124 µg/mL, partner 0.0625 µg/mL | 0.629
S. aureus Newman [2], first compound 0.781 µg/mL, partner 0.5 µg/mL | 0.705
S. aureus Newman [2], first compound 0.781 µg/mL, partner 1 µg/mL | 0.802
S. aureus Newman [2], first compound 0.781 µg/mL, partner 2 µg/mL | 0.796
S. aureus Newman [2], first compound 1.562 µg/mL, partner 0.5 µg/mL | 0.585
S. aureus Newman [2], first compound 1.562 µg/mL, partner 1 µg/mL | 0.65
S. aureus Newman [2], first compound 1.562 µg/mL, partner 2 µg/mL | 0.666
S. aureus Newman [2], first compound 3.124 µg/mL, partner 0.5 µg/mL | 0.422
S. aureus Newman [2], first compound 3.124 µg/mL, partner 1 µg/mL | 0.455
S. aureus Newman [2], first compound 3.124 µg/mL, partner 2 µg/mL | 0.464
S. pneumoniae D39V [3], first compound 1.25 µg/mL, partner 2 µg/mL | 0.96
S. pneumoniae D39V [3], first compound 1.25 µg/mL, partner 4 µg/mL | 0.944
S. pneumoniae D39V [3], first compound 1.25 µg/mL, partner 8 µg/mL | 0.948
S. pneumoniae D39V [3], first compound 2.5 µg/mL, partner 2 µg/mL | 0.941
S. pneumoniae D39V [3], first compound 2.5 µg/mL, partner 4 µg/mL | 0.896
S. pneumoniae D39V [3], first compound 2.5 µg/mL, partner 8 µg/mL | 0.876
S. pneumoniae D39V [3], first compound 5 µg/mL, partner 2 µg/mL | 0.715
S. pneumoniae D39V [3], first compound 5 µg/mL, partner 4 µg/mL | 0.674
S. pneumoniae D39V [3], first compound 5 µg/mL, partner 8 µg/mL | 0.72

fitness, S. aureus Newman [2], one replicate, main component drawn
Settings | first compound 0.781 µg/mL | first compound 1.562 µg/mL | first compound 3.124 µg/mL
partner 0.375 µg/mL | 0.589 | 0.554 | 0.236
partner 0.75 µg/mL | 0.596 | 0.571 | 0.232
partner 1.5 µg/mL | 0.537 | 0.447 | 0.119

main component drawn
Settings | Bliss interaction score
B. subtilis 168 [4] | 0.152
S. aureus DSM 20231 | -0.0757
S. aureus Newman [5] | 0.152
S. pneumoniae D39V [6] | -0.0335

O=C(O)c1cn(C2CC2)c2cc(N3CCNCC3)c(F)cc2c1=O [Ciprofloxacin] + C[n+]1ccc(-c2cc[n+](C)cc2)cc1 [Paraquat]
Settings | fitness
B. subtilis 168 [1], first compound 0.0098 µg/mL, partner 1.25 µg/mL | 0.895
B. subtilis 168 [1], first compound 0.0098 µg/mL, partner 2.5 µg/mL | 0.922
B. subtilis 168 [1], first compound 0.0098 µg/mL, partner 5 µg/mL | 0.788
B. subtilis 168 [1], first compound 0.0195 µg/mL, partner 1.25 µg/mL | 0.753
B. subtilis 168 [1], first compound 0.0195 µg/mL, partner 2.5 µg/mL | 0.657
B. subtilis 168 [1], first compound 0.0195 µg/mL, partner 5 µg/mL | 0.687
B. subtilis 168 [1], first compound 0.039 µg/mL, partner 1.25 µg/mL | 0.171
B. subtilis 168 [1], first compound 0.039 µg/mL, partner 2.5 µg/mL | 0.171
B. subtilis 168 [1], first compound 0.039 µg/mL, partner 5 µg/mL | 0.234
S. aureus Newman [2], first compound 0.0375 µg/mL, partner 1.25 µg/mL | 0.662
S. aureus Newman [2], first compound 0.0375 µg/mL, partner 2.5 µg/mL | 0.639
S. aureus Newman [2], first compound 0.0375 µg/mL, partner 5 µg/mL | 0.642
S. aureus Newman [2], first compound 0.075 µg/mL, partner 1.25 µg/mL | 0.674
S. aureus Newman [2], first compound 0.075 µg/mL, partner 2.5 µg/mL | 0.635
S. aureus Newman [2], first compound 0.075 µg/mL, partner 5 µg/mL | 0.663
S. aureus Newman [2], first compound 0.15 µg/mL, partner 1.25 µg/mL | 0.033
S. aureus Newman [2], first compound 0.15 µg/mL, partner 2.5 µg/mL | 0.0399
S. aureus Newman [2], first compound 0.15 µg/mL, partner 5 µg/mL | 0.0549
S. pneumoniae D39V [3], first compound 0.125 µg/mL, partner 1.5 µg/mL | 0.983
S. pneumoniae D39V [3], first compound 0.125 µg/mL, partner 3 µg/mL | 0.974
S. pneumoniae D39V [3], first compound 0.125 µg/mL, partner 6 µg/mL | 0.97
S. pneumoniae D39V [3], first compound 0.25 µg/mL, partner 1.5 µg/mL | 0.942
S. pneumoniae D39V [3], first compound 0.25 µg/mL, partner 3 µg/mL | 0.913
S. pneumoniae D39V [3], first compound 0.25 µg/mL, partner 6 µg/mL | 0.902
S. pneumoniae D39V [3], first compound 0.5 µg/mL, partner 1.5 µg/mL | 0.877
S. pneumoniae D39V [3], first compound 0.5 µg/mL, partner 3 µg/mL | 0.875

Settings | Bliss interaction score
B. subtilis 168 [4] | -0.0477
S. aureus DSM 20231 | -0.0499
S. aureus Newman [5] | -0.0507
S. pneumoniae D39V [6] | 0.0853
